Results from patent US12281118B2, “Nitrogen-containing fused heterocyclic SHP2 inhibitor compound, preparation method, and use” (SHANGHAI RINGENE BIOPHARMA CO., LTD., priority 2018, dated 2025).
Where two headings read alike, the source gives them in different places.

Key:
[1] = system: MV 4-11 tumor cell xenograft; assay: Growth inhibition of xenograft in nude mice; format: in vivo; conditions: 30 mg/kg, orally, once daily, for 21 consecutive days
Source text: (§1) Experimental method: 1) Culturing MV 4-11/KYSE520/NCI-H358 cells in a culture medium containing 10% fetal bovine serum. Harvesting tumor cells at an exponential growth phase, and resuspending in PBS to suitable concentrations for subcutaneous tumor inoculation in nude mice. 2) Subcutaneously inoculating 2-8×10^7 tumor cells at the right back of a mouse, and resuspending the cells in PBS and matrigel (1:1); observing tumor growth regularly, and randomizing mice for administration based on tumor size and mouse body weight when tumors grow to a mean volume of ˜120 mm^3-[…]. 3) Defining the day of tumor cell inoculation as Day 0. Prior to the start of dosing, weighing all animals and measuring the tumor volume with a vernier caliper. 3) Administering orally compound of examples (prepared with water for injection containing 1% Tween80 to a desired concentration for use) at a given dose for three consecutive weeks, and giving an equal amount of solvent animals in a solvent control group. Measuring diameters of the xenograft twice a week throughout the experiment, and weighing the mice were at the same time.
(§2) The calculation formula of tumor volume (TV) is: TV=½×a×b^2, wherein a and b represent length and width, respectively. The relative tumor volume (RTV) is calculated based on the measured results using the formula: RTV=Vt/V0, wherein V0 is the tumor volume measured at the time of dosing in separate cages (i.e., Day 0) and Vt is the tumor volume at each measurement. The anti-tumor activity is evaluated by the following measures: 1) relative tumor proliferation rate T/C (%), which is calculated by the following formula: T/C (%)=(TRTV/CRTV)×100%, wherein TRTV: RTV of ae treatment group; CRTV: RTV of a negative control group; 2) inhibition rate of tumor volume growth GI %, which is calculated by the following formula: GI %=[1−(TVt−TV0)/(CVt−[…])]×100%, wherein TVt is the tumor volume at each measurement in the treatment group; TV0 is the tumor volume obtained at the time of dosing in separate cages in the treatment group; CVt is the tumor volume at each measurement in the control group; CV0 is the tumor volume obtained at the time of dosing in separate cages in the control group (specific data are shown in Table 4).

[2] = system: KYSE520 tumor cell xenograft; assay: Growth inhibition of xenograft in nude mice; format: in vivo; conditions: 30 mg/kg, orally, once daily, for 21 consecutive days
Source text: as §1, §2

[3] = system: MV4-11 leukemia cells; assay: Inhibition of proliferation of MV4-11 leukemia cells (CellTiter-Glo, 72 h); format: cell-based; conditions: read-out: IC50 value, MV4-11 cell proliferation
Procedure: Specific experimental procedures: 1) At Day 0: Inoculating trypsin-digested cells in 96-well plate and suspending the plate in cell culture medium; measure cell density using an automatic cell counter, diluting the cells with the culture medium to appropriate density, adding 100 μl of cell suspension in the 96-well plate, and incubating a cell-free medium as a control well in a cell incubator with […] at 37° C. overnight; 2) Day 1: Treating test compounds of the cells using a drug for a total of 8 concentrations, and diluting at a 3× concentration, wherein 10 μM is a starting test concentration of the test compounds. […] IC50 values are obtained by a four-parameter regression using software attached to the plate reader (the specific results are shown in Table 2).

[4] = system: NCI-H358 tumor cell xenograft; assay: Growth inhibition of xenograft in nude mice; format: in vivo; conditions: 10 mg/kg, orally, once daily, for 21 consecutive days
Source text: as §1, §2

[5] = molecular target: SHP2 enzyme (Homo sapiens (Human), UniProt Q06124); assay: Inhibitory activity against SHP2 enzyme (Caliper conversion rate); format: biochemical; conditions: read-out: SHP2 Enzyme Inhibition IC50 Value
Chain of SHP2 enzyme (Q06124 whole entry): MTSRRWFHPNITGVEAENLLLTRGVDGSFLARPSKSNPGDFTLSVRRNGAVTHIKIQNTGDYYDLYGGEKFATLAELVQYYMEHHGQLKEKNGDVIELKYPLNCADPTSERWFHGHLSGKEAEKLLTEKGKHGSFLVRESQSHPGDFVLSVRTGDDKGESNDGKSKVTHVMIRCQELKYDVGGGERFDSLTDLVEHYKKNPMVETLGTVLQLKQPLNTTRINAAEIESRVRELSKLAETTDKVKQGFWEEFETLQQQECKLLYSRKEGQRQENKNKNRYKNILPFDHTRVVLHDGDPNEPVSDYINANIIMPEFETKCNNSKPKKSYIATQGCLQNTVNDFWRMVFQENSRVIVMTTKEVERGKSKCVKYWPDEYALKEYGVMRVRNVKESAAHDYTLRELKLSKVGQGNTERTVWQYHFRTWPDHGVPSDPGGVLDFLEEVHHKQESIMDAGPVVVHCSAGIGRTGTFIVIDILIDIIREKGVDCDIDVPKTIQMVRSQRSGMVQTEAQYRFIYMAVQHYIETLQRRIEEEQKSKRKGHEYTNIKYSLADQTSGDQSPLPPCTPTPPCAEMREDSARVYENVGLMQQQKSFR
Procedure: (1) Preparing 1×Reaction Buffer according to the BPS Biosciences' Instructions for Use of the SHP2 enzyme. (2) Preparing a compound concentration gradient: Test the test compound at 10 μM under 3× dilution for 10 concentrations, diluting to a 100% dimethyl sulfoxide solution at a 100× final concentration in a 384-well plate, and diluting the compound with Precision 4× for 10 concentrations. Transferring 250 nL of the compound at the 100× final concentration to a target plate OptiPlate-384F using a dispenser Echo 550. […] (3) Preparing the activation peptide solution at a 5× final concentration with the 1×Reaction Buffer, adding 5 μL of the solution to a reaction plate, respectively, and centrifuging at 1000 rpm for 1 min. (4) Preparing an enzyme solution at a 2.5× final concentration with the 1×Reaction Buffer, adding 10 μL of the solution to the reaction plate, respectively, centrifuging at 1000 rpm for 1 min, and incubating at room temperature for 60 min. (5) Preparing a substrate peptide solution at a 2.5× final concentration with the 1×Reaction Buffer, centrifuging at 1000 rpm for 1 min, and incubating at room temperature for 30 min. (6) Adding 30 μL of stop test solution to stop the reaction, centrifuging at 1000 rpm for […], and mixing well by shaking. (7) Reading the conversion rate with a Caliper EZ Reader. (7) Data analysis:
Wherein: Conversion %/_sample is the reading of a conversion rate of a sample; Conversion %_min: mean of negative control wells, which represents the reading of a conversion rate in absence of enzyme activity wells; Conversion %_max: mean of a ratio of positive control wells, which represents the reading of a conversion rate in absence of compound inhibition wells.

SMILES	T/C [1] [%]	T/C [2] [%]	IC50 ([3]; 72 h) [nM]	T/C [4] [%]	IC50 [5] [nM]	IC50 ([3]; Homo sapiens, MV4-11, 72 h) [nM]
CC1(N)CCN(c2cnc(-c3cccc(Cl)c3Cl)c(N)n2)CC1 [SHP099, reference compound]	47	43	1670	–	–	–
Cc1nc(N2CCC3(CC2)CO[C@@H](C)[C@H]3N)n2ccnc2c1Sc1ccnc(N)c1Cl [Comparative Compound 3, reference compound]	–	–	–	39	6.8	43
